Key:
rats = experiment: Prepulse inhibition of acoustic startle, phencyclidine-induced sensorimotor gating deficit; type: in vivo, rat; details: for inhibition of startle response when preceded by pre-pulse (sensorimotor gating): rats pretreated 60 min, PCP 1.25 mg/kg SC, FIG. 7
Source text: Sensorimotor gating, a process compromised in schizophrenic patients, is often measured using prepulse inhibition whereby a mild auditory stimulus (prepulse, 2-15 db above background) precedes (100 ms) a startle-eliciting auditory stimulus (50 dB above background). Intact sensorimotor gating will result in suppression of the startle reflex when preceded by the prepulse. Since improvement in prepulse inhibition tracks improvement in symptoms that are largely insensitive to current treatments, this paradigm has become one of the most commonly used screening paradigms. FIG. 5 illustrates the capacity of PCP to disrupt prepulse inhibition, rendering the prepulse ineffective in suppressing the startle reflex. PCP is commonly used to disrupt prepulse inhibition because this abnormality, in addition to negative and cognitive symptoms, are insensitive to 1st generation antipsychotics thereby providing predictive validity.
FIG. 7 is a bar graph illustrating inhibition of a startle response in response to a load stimulus (pulse) when preceded by a pre-pulse stimulus (2-15 db above background). Prepulse inhibition is a commonly used paradigm to screen antipsychotic agents for use in treating schizophrenia. The pre-pulse stimulus presented at 15 dB above background reduced the startle response in saline controls (Sal; N=54) by >60% relative to the response elicited following exposure to the pulse only. […] This reflects sensorimotor gating deficits common to patients afflicted with schizophrenia.
In an exemplary experiment, rats are placed on a platform in a sound attenuating chamber (10.875″×14″×19.5″, Hamilton Kinder, CA) that rests on a motion sensing plate. During all sessions, background noise is held constant at 60 dB. A matching session is conducted to determine the magnitude of the average startle response for each rat. This session consists of a five minute habituation period followed by twenty trials.
Seventeen of these trials involve the presentation of a single auditory stimulus (pulse stimulus; 50 dB above the background noise), and in three of these trials, a pre-pulse stimulus (12 dB above background) is presented 100 ms before the pulse auditory stimulus.
Rats are then assigned to various treatment groups so that the magnitude of the startle response is equivalent across all groups. Two days later, a testing session is conducted to assess sensorimotor gating.
The testing session consists of a five minute habituation period, after which rats received 58 discrete trials: 26 trials during which the pulse stimulus (50 dB above background) was presented alone, eight trials each in which the pulse stimulus was preceded by a pre-pulse stimulus (5, 10, or 15 dB above background), and eight background trials with no pulse (no stimulus; background noise only).
The first six pulse alone trials are not included in the average startle stimulus, to achieve a relatively stable level of startle reactivity. The percent of pre-pulse inhibition is determined as 100−(average pre-pulse startle response/average startle stimulus alone)*100.

rodents = details: cited from earlier work
cocaine abusers = cocaine abusers receiving NAC; cited from earlier work
[1] = in vivo; cited from earlier work
human subjects = details: cited from earlier work
[2] = clinical trials; cited from earlier work
[3] = N=8/group, versus PCP alone and/or N-acetylcysteine 30 mg/kg, Fisher LSD p<0.05

**Q.** For “tert-Butyl (1R,1′R)-2,2′-disulfanediylbis(1-(3-isopropyl-1,2,4-oxadiazol-5-yl)ethane-2,1-diyl)dicarbamate [Compound 22]”, which “inhibition of startle response when preceded by pre-pulse (sensorimotor gating)” value (“inhibition of startle response” below) (rats; [3]) is on record?
**A.** significant difference

**Q.** Which “reduction in the startle response elicited by the pulse when preceded by the pre-pulse” value (rats; rats, phencyclidine only 1.25 mg/kg SC, N=50, regardless of pre-pulse intensity) does the source give for `c1ccc(C2(N3CCCCC3)CCCCC2)cc1` [phencyclidine] here?
**A.** failed to exhibit a reduction in the response elicited by the pulse

**Q.** For `Cc1noc(C(CSSCC(NC(=O)OC(C)(C)C)c2nc(C)no2)NC(=O)OC(C)(C)C)n1` [Compound 23, tert-Butyl (1R,1′R)-2,2′-disulfanediylbis(1-(3-methyl-1,2,4-oxadiazol-5-yl)ethane-2,1-diyl)dicarbamate], which “inhibition of startle response” value (rats; [3]) is on record?
**A.** significant difference

**Q.** Which “phencyclidine-induced deficits in sensorimotor gating” value (rats; direct delivery into the brain (prefrontal cortex), FIG. 6) does the source give for `CC(=O)N[C@@H](CS)C(=O)O` [N-acetyl cysteine, N-acetylcysteine] here?
**A.** reverses phencyclidine-induced deficits in sensorimotor gating

**Q.** What about the “inhibition of startle response” value (rats; 30 mg/kg po) of the same compound?
**A.** failed to exhibit sensorimotor gating

**Q.** What about the blocking compulsive drug-seeking (rodents) of the same compound?
**A.** effective in blocking compulsive drug-seeking

**Q.** What about the “cocaine use and craving” value (cocaine abusers) of the same compound?
**A.** reduction in cocaine use and craving

**Q.** And the first-pass metabolism [1]?
**A.** extensive first-pass metabolism

**Q.** What about the “passive transport across the blood-brain barrier” value [1] of the same compound?
**A.** limited passive transport

**Q.** And the safety/tolerability profile (human subjects)?
**A.** favorable safety/tolerability profile

**Q.** What about the antipsychotic efficacy [2] of the same compound?
**A.** clinical trials establishing the antipsychotic efficacy

**Q.** Which “inhibition of startle response” value (rats; [3]) does the source give for `CC(C)c1noc([C@@H](N)CSSC[C@H](N)c2nc(C(C)C)no2)n1` [Compound 25, (1R,1′R)-2,2′-Disulfanediylbis(1-(3-isopropyl-1,2,4-oxadiazol-5-yl)ethanamine)] here?
**A.** significant difference

Source: patent publication US9133141B2, “Cysteine and cystine bioisosteres to treat schizophrenia and reduce drug cravings” (Marquette University, priority 2008, dated 2015)
